Results published in paper PMC5556071, “ATR inhibition facilitates targeting of leukemia dependence on convergent nucleotide biosynthetic pathways” (Nature Communications, 2017).

Key:
Assay type in all cases: cell-based, human
Jurkat cells = test: Cell cycle histograms (propidium iodide flow cytometry); settings: dCKi 1 µM, 24 h
Protocol: Cell cycle histograms. Cells were plated at a density of 0.5 x 10^6 cells/mL in respective media or drug treated
media. Following 24 h incubation, cells were harvested and washed twice with PBS twice before staining with
0.5 ml of propidium iodide (Calbiochem, #P3566, 1 µg/mL) solution containing Ribonuclease A and 0.3%
Triton-X 100. The samples were protected from light before acquisition by flow cytometry. […]

RRM2 pT33 = test: Phosphoproteomic nLC-MS/MS analysis of RRM2 phosphorylation; parameters: key to RNR pT33: ↓: partial decrease/inhibition; ↓↓↓: nearly complete inhibition; ↑: increase; ⟷: no change
Protocol: against both the Uniprot human FASTA database and a decoy database of the Uniprot human database which read from C-terminus to N-terminus; Percolator was used to filter the data at 1% FDR at both the peptide and […]
Phosphoproteomic analyses. CCRF-CEM cells were prepared same as the asynchronous CEM cells total protein digests above, except that a total of 7.5 mg total protein from 1 x 10^8 cells was collected per treatment condition for phosphoproteomic analysis. tC18 Sep-Pak cartridges (Waters) were used for peptide desalting and Pierce Quantitative Colorimetric Peptide Assay was performed prior to phosphopeptide enrichment.
Hydrophilic interaction chromatography (HILIC) and immobilized metal affinity chromatography (IMAC) were performed same as previously described4. Data dependent nLC-MS/MS was performed on Thermo QExactive Plus same as above. Raw data was searched against Uniprot human database using MaxQuant 1.5.3.30 with the following search parameters: trypsin cleavage allowing up to 2 missed cleavages, fixed modification of carbamidomethyl to cysteines, variable modifications of acetylation to protein N-terminus, methionine oxidation, and phosphorylation to serine, threonine, and tyrosine, 10 ppm and 20 mmu mass errors for full MS and MS/MS, respectively, score of 40 or greater for modified peptides, and 1% false-discovery rate on peptide and protein identifications. Identified phosphopeptides were manually quantified by area-based extracted ion chromatograms of the monoisotopic peak. […]
Plasma samples were processed the same way as the calibration standard samples. 20 μL samples were injected onto a reverse phase column, (Thermo Scientific Hypersil GOLD column 3.0 µm; 2.1 x 100 mm) equilibrated in water/formic acid, 100/0.1, and eluted (200 μL/min) with an increasing concentration of solvent […]
The effluent from the column was directed to the Agilent Jet Stream ion source connected to the triple quadrupole mass spectrometer (Agilent 6460) operating in the multiple reaction monitoring (MRM) mode using previously optimized settings. The following drug precursor→fragment ion transitions were used: 3-AP

CEM T-ALL cells = test: ssDNA (F7-26) and pH2A.X flow cytometry
Protocol: Treated CEM T-ALL cells were fixed with ice-cold methanol:PBS (6:1 v/v). Staining with F7-26 ssDNA monoclonal antibody (mouse) was performed according to manufacturer’s instructions (EMD Millipore, #MAB3299) followed by secondary antibody IgM-PE. Subsequently, cells were stained with the phospho-Histone H2A.X (pS139 H2A.X) specific antibody conjugated to FITC (EMD Millipore, #05-636) and DAPI, and then analyzed by flow cytometry (a detailed description is available in the Supplementary Information).
(525→383). The peak areas for each drug (precursor→fragment ion transitions) at predetermined retention times were recorded using the software supplied by the instrument manufacturer (Agilent MassHunter).
Cell cycle histograms. Cells were plated at a density of 0.5 x 10^6 cells/mL in respective media or drug treated media. […]
Cell cycle kinetics and cell cycle progression by intracellular detection of DNA-incorporated 5-ethynyl-2-deoxyuridine (EdU). […] The total DNA content was assessed by staining the samples with FxCycle-Violet (Invitrogen, #F10347) at 1 µg/mL final concentration in PBS containing 2% FBS. […] Total DNA content was assessed by staining with FxCycle-Violet (Invitrogen) at 1 µg/mL final concentration in PBS containing 2% FBS. pH2A.X staining. […]
Measurement of ssDNA levels using the F7-26 monoclonal antibody. […] Cells were washed with PBS and stained with 100 µL of fluorescence-conjugated […]

[1] = Suppl. Fig. 5e, BCX-1777 100 nM
[2] = asynchronous CEM, VE-822 1 µM, 12 h

COc1ccc(-c2nc([C@@H](C)Sc3nc(N)cc(N)n3)c(C)s2)cc1OCCNS(C)(=O)=O [dCKi]
cells in G2/M (Jurkat cells; Suppl. Fig. 4e, dCF 10 µM): 17%
cells in S phase (Jurkat cells; Suppl. Fig. 4e, dCF 10 µM): 30%
cells in G2/M (Jurkat cells; [1]): 14%
cells in S phase (Jurkat cells; [1]): 32%

CNCc1ccc(-c2cc(-c3nc(-c4ccc(S(=O)(=O)C(C)C)cc4)cnc3N)on2)cc1 [VE-822]
decrease in the phosphorylation of RRM2 on threonine 33 (pT33) (RRM2 pT33; [2]): ~ 50%
mean fold change of RRM2 pT33 normalized to total RRM2 (RRM2 pT33; [2]): 0.43 ± 0.1 fold
observed fold decrease for pT33 (phosphoproteomic nLC-MS/MS) (RRM2 pT33; [2]): 0.34 fold
RNR pT33 (RRM2 pT33; summary Fig. 2g, CEM cells): ↓

NC(=S)N/N=C/c1ncccc1N [3-AP]
increase of the percentage of ssDNA+ cells (CEM T-ALL cells; 0.5 h after treatment): more than two-fold
increase of the percentage of ssDNA+ cells (CEM T-ALL cells; 4 h time point): greater than three-fold
